“Also recorded” adds a separate entry of the source.

One series has as its target T1, hTRPV4 (Homo sapiens, UniProt Q9HBA0).
T1 construct: expressed in transfected cells; host or cells: HEK293 (ATCC CRL-1573)
Kind of series: Single-channel recordings of hTRPV4 in HEK293 cells. It is filed as biochemical. As to conditions: +60 mV; 100 nM GSK101 or 5 μM LPC 18:1. Here is the method: (§1) Cell culture and transfection. HEK293 cells (ATCC® CRL-1573) were cultured on poly-D-lysine coated coverslips in 24-well plate containing DMEM media with high-Glucose (Gibco, Gaithersburg, MD) supplemented with 10% fetal bovine serum (FBS, HyClone Laboratories, Logan, UT) and 100 U/mL of penicillin/streptomycin (Gibco, Gaithersburg, MD). Cell cultures were maintained with 5% of CO2 in a humidified incubator at 37° C. HEK cells were transfected with rat or human wild type or mutant TRPV4 channels with EGFP or YFP coupled to their C-termini (1.5 μg of plasmid for excised patch clamp and Ca^2+ imaging and 200 ng for single-channel experiments). The jetPEI™ Polyplus transfection reagent (Polyplus Transfection, New York, NY) for electrophysiology or Lipofectamine™ 2000 Reagent (Invitrogen, Waltham, MA) for Ca^2+ imaging were used for transfections per manufacturer's instructions as previously described (Chen et al. Pain 2014, 155, 2662-2672; Morales-Lazaro et al. Nat. Commun. 2016, 7, 13092). To investigate whether miR-146a can directly activate TRPV1 channels or indirectly via TLRs, HEK293 cells were transfected with rTRPV1 or co-transfected rTRPV1 with rTLR7, rTLR2, or rTLR6 (Addgene, Watertown, MA) for Ca^2+ imaging assay. Control cells were transfected with GFP or YFP.
For single-channel recordings, Borosilicate glass […]) pipettes were used. Recordings were obtained at +60 mV by acquiring several traces of 1-3 s duration. The effect of GSK1016790A or LPC 18:1 on single TRPV4 channels was studied in inside-out. Currents were filtered at 2 kHz and sampled at 5 kHz. […] Single-channel openings and closures were identified with the half-threshold crossing technique (Morales-Lazaro et al. Nat. Commun. 2016, 7, 13092). The channel open probability was calculated as the sum of the total open time divided by the sweep duration. Dwell times and amplitude histograms in the closed or open states were collected in logarithmic time histograms according to the Sine-Sigworth transformation (Sigworth et al. Biophys. J. 1987, 52, 1047-1054). Sums of three or two exponential components were fitted to histograms using a least-squares algorithm.

For series [1] the following is noted: cited from earlier work.
The test system of series [2] is human TRPV4 mutations (R746C, R746G, R746D, K754G, R757G, R774G, and W776G). In words: Ca2+ imaging in HEK cells transfected with human TRPV4 mutations. The class given is cell-based. As to conditions: except a reduction with mutation W776G. The procedure: as §1, with “To investigate whether miR-146a can directly activate TRPV1 channels or indirectly via TLRs, HEK293 cells were transfected with rTRPV1 or co-transfected rTRPV1 with rTLR7, rTLR2, or rTLR6 (Addgene, Watertown, MA) for Ca^2+ imaging assay. Control cells were transfected with GFP or YFP.” left out
(§2) In vitro and ex vivo Ca^2+ imaging. […] Ratios of emissions were acquired at 0.5 Hz. ΔR/R0 was determined as the fraction of the increase of a given ratio over baseline ratio divided by baseline ratio. […]

Series [3] deals with rat TRPV4 mutations (R746C, R746G, R746D, K754G, R757G, R774G, and W776G). In words: Ca2+ imaging in HEK cells transfected with rat TRPV4 mutations. It is filed as cell-based. The note with it: except a reduction with mutation W776G. The procedure:
as §1
Site-directed mutagenesis of TRPV4 channels. TRPV4 sequences of multiple species were aligned using Clustal Omega program. Site-directed mutagenesis to generate point mutations in rat and human TRPV4 channels were carried out using Phusion DNA polymerase enzyme (Salazar et al. Nat. Struct. Mol. Biol. 2009, 16, 704-710; Rosenbaum et al. Neuron 2002, 33, 703-713; Hsieh et al. Methods Mol. Biol. 2013, 978, 173-186), with final sequencing to check for presence of the induced mutation. We introduced the following mutations into the rTRPV4 or hTRPV4 channel: R746C, R746G, R746D, K754G, R757G, R774G, and W776G.
as §2

Series [4] deals with TRPV1+ central nerve terminals. In words: Ablation of TRPV1+ central nerve terminals in spinal cord (TRPV1 immunolabeling). It is filed as in vivo, mouse. The note with it: i.t. 200 ng/5 μL. Here is the method: To examine whether TRPV1-expressing sensory neurons contribute to LPC- or miR-146α-induced itch, we ablated the central terminals of TRPV1-expressing neurons by i.t. injection of 200 ng resiniferatoxin (RTX) into the L4/L5 subarachnoid space (Mishra et al. Mol. Cell. Neurosci. 2010, 43, 157-163). Lumbar puncture was made with a 30G-needle and drugs at 5 μL of volume were delivered. Scratching behavior assay was started approximately 2 weeks after resiniferatoxin treatment.
Immunohistochemistry and morphometry analysis. Routine procedures were followed (Chen et al. Pain 2014, 155, 2662-2672). Briefly, mice were perfused transcardially with 0.01 M PBS followed by ice-cold 4% paraformaldehyde (PFA, Sigma, St. Louis, MO). Cervical spinal cord, TGs and cervical DRGs, and dorsal neck skin were dissected and post-fixed in 4% PFA overnight, cryoprotected in 20% sucrose (48 h) and sectioned on a cryostat (30 μm for spinal cord, 12 μm for TG and DRG and neck skin). […] 4-6 sections were analyzed per mouse. […] The cutoff density threshold was determined by averaging the density of three neurons per section that were judged to be minimally positive, using ImageJ software. […] Positive cells were expressed as % of total counted TG neurons. The labeling density of TRPV1 in spinal cord was measured using the integrated density algorithm of Image J.

A further series concerns mice. In words: Effect of inhibitor pretreatment on LPA-, LPC- or miR-146a-induced scratching behavior. The note with it: i.t. 200 ng/5 μL, about 2 weeks before. The class given is in vivo, mouse. The procedure: Behavioral assessment. Mice were shaved at the dorsal neck 1 d before experiments. […] After injections, mice were immediately placed back to the chamber, and the scratching behavior was recorded by a Panasonic video camera for 30 min. Hind limb scratching behavior directed toward the injected area at the nape of neck was observed. One scratch is defined as a lifting of the hind limb toward the injection site and then a replacing of the limb back to the floor, regardless of how many scratching strokes take place between those two movements. Behavioral analysis was conducted by observers blinded to genotype.
Control animals received the same volume of vehicles.
Lumbar puncture was made with a 30G-needle and drugs at 5 μL of volume were delivered. Scratching behavior assay was started approximately 2 weeks after resiniferatoxin treatment.

T1 sequence (Q9HBA0 whole entry): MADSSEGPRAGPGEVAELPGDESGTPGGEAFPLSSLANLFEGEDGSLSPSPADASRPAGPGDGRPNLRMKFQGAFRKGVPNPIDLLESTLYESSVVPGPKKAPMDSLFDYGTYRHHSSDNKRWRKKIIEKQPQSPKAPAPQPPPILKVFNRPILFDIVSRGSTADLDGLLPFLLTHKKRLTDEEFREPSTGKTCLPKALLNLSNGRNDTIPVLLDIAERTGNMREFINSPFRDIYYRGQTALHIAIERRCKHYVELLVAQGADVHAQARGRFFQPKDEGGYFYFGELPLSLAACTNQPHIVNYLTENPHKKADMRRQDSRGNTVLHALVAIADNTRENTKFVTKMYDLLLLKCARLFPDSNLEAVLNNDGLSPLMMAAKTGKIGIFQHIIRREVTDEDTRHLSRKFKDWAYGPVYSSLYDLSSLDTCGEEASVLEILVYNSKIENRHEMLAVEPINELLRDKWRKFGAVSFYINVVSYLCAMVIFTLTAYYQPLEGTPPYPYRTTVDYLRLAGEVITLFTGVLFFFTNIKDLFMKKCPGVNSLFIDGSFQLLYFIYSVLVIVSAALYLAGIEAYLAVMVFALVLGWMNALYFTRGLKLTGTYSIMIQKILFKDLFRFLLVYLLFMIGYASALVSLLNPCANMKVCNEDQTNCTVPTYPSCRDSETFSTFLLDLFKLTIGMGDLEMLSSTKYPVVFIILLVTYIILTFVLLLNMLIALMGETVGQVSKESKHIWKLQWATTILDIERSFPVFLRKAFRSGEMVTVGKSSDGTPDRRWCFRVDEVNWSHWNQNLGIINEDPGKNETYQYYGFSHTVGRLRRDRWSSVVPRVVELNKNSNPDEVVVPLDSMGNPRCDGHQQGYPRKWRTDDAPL

For `CC(C)C[C@H](NC(=O)c1cc2ccccc2s1)C(=O)N1CCN(C(=O)[C@H](CO)NS(=O)(=O)c2ccc(Cl)cc2Cl)CC1` [GSK101], at hTRPV4, the “open level (single-channel) amplitude” value amounted to 6.45±0.55 pA, the “open probability (Po)” value is 0.85±0.08 and the “single channel conductance (gi)” value came to 107 pS. Also, in series [1], the lethality in-vivo entry is given as “lethal”. Also, the “10 nM GSK101-induced Ca2+ signal in TRPV4 mutants vs hTRPV4” value in series [2] was “not significantly disrupted”. Besides, the “10 nM GSK101-induced Ca2+ signal in TRPV4 mutants vs rTRPV4” value in series [3] is given as “remained largely active; also recorded: not significantly disrupted”.

As for `C=C(C)[C@]12C[C@@H](C)[C@@]34O[C@](Cc5ccccc5)(O[C@@H]1[C@@H]3C=C(COC(=O)Cc1ccc(O)c(OC)c1)C[C@]1(O)C(=O)C(C)=C[C@@H]41)O2` [resiniferatoxin], the “TRPV1+ central nerve terminals in superficial layers of the spinal cord” value in series [4] was “Selective ablation; also recorded: Elimination”. In the series with mice, the “effect on LPC-induced itch after ablation of TRPV1-expressing terminals” value was “significantly reduced” and the “effect on miR-146a-induced itch after ablation of TRPV1-expressing terminals” value is “significant reduction; also recorded: significantly reduced”.

Source of the values: patent US20240002846A1, “COMPOSITIONS AND METHODS FOR THE DIAGNOSIS AND TREATMENT OF ITCH” (Duke University, priority 2020, published 2024).
